Reference: patent US20240109915A1, “NOVEL ACC INHIBITORS” (Pfizer Inc., priority 2022, published 2024)

What was measured:
[1] = target: recombinant human ACC1 (rhACC1) (Homo sapiens (Human), UniProt Q13085); test: Transcreener ADP detection FP assay, direct inhibition of rhACC1; assay type: biochemical; settings: Geomean IC50, n ≥ 2 unless * then n = 1; 50 μM ATP, 30 μM acetyl-CoA
Description: The direct inhibition of ACC1 for the compounds of the present invention was determined using preparations of recombinant human ACC1 (rhACC1) (SEQ ID NO. 1)
Two liters of SF9 cells, infected with recombinant baculovirus containing full length human ACC1 cDNA, were suspended in ice-cold lysis buffer (25 mM Tris, pH 7.5; 150 mM NaCl; 10% glycerol; 5 mM imidazole (EMD Bioscience; Gibbstown, NJ); 2 mM TCEP (BioVectra; Charlottetown, Canada); Benzonase nuclease (10000 U/100 g cell paste; Novagen; Madison, WI); EDTA-free protease inhibitor cocktail (1 tab/50 ml; Roche Diagnostics; Mannheim, Germany). Cells were lysed by 3 cycles of freeze-thaw and centrifuged at 40,000×g for 40 minutes (4° C.). Supernatant was directly loaded onto a HisTrap FF crude column (GE Healthcare; Piscataway, NJ) and eluted with an imidazole gradient up to 0.5 M over 20 column volumes (CV). ACC1-containing fractions were pooled and diluted 1:5 with 25 mM Tris, pH 7.5, 2 mM TCEP, 10% glycerol and direct loaded onto a CaptoQ (GE Healthcare) column and eluted with an NaCl gradient up to 1 M over 20 CV's. Phosphate groups were removed from purified ACC1 by incubation with lambda phosphatase (100 U/10 μM target protein; New England Biolabs; Beverly, MA) for 14 hours at 4° C.; okadaic acid was added (1 μM final concentration; Roche Diagnostics) to inhibit the phosphatase. Purified ACC1 was exchanged into 25 mM Tris, pH 7.5, 2 mM TCEP, 10% glycerol, 0.5 M NaCl by 6 hour dialysis at 4° C. Aliquots were prepared and frozen at −80° C.
Measurement of rhACC1 Inhibition rhACC1 was assayed in a Corning #3820 (Corning, Tewksbury, MA) 384-well plate using the Transcreener ADP detection FP assay kit (Bellbrook Labs, Madison, Wisconsin) using the manufacturer's recommended conditions for a 50 μM ATP reaction. The final conditions for the assay were 50 mM HEPES, pH 7.2, 10 mM MgCl2, 7.5 mM tripotassium citrate, 2 mM DTT, 0.1 mg/mL BSA, 30 μM acetyl-CoA, 50 μM ATP, and 10 mM KHCO3. Typically, a […] was run for 60 min at room temp, and 10 μl of Transcreener stop and detect buffer was added and the combination incubated at room temp for an overnight (18 hours). The data was acquired on an Envision Fluorescence reader (PerkinElmer) using a 620 excitation Cy5 FP general dual mirror, 620 excitation Cy5 FP filter, 688 emission (S) and a 688 (P) emission filter.

SZ95 sebocytes = test: Radiometric measurement of de novo lipogenesis in cultured human sebocytes; assay type: cell-based; settings: Geomean IC50, n>2 unless * then n=1, 14C acetate incorporation into lipids (DNL)
Description: SZ95 sebocytes were grown in Human Sebocyte Growth Medium (HSGM) containing Sebomed® basal medium (Sigma-Aldrich, F8205) supplemented with 10% heat-inactivated fetal bovine serum (Gibco, 10100-147), 1% penicillin/streptomycin (Gibco, 15070-063), 1 mM calcium chloride (Fisher, BP9742-10X5) and 5 ng/mL recombinant human epidermal growth factor (Gibco, PHG0311). At 90% confluence, cells were washed with PBS and then detached with 0.05% Trypsin-EDTA (Gibco, 25300054). Prior to starting the assay, cells were centrifuged and resuspended in HSGM containing 5% charcoal-stripped serum (Life Technologies, 12676-029) instead of 10% heat-inactivated fetal bovine serum. Cells were added to 24-well plates at a density of 0.25×10^6 cells/well and incubated overnight at 37° C. to allow the cells to adhere to the culture plate. Cells were then treated with a dose response of compound (30, 1, 0.03, 0.006, 0.0009, 0.0002, and 0.00003 μM) with each concentration tested in duplicate. Briefly, compounds were dissolved in DMSO stocks and diluted 1:1000 into HSGM with charcoal-stripped media. The vehicle control wells were treated with 0.1% DMSO. After a 1-hour preincubation with compound or vehicle at 37° C., 0.25 μCi ^14C sodium acetate (American Radiolabeled Chemicals: ARC, 0173A) was added to each well. Plates were incubated for an additional two hours at 37° C. At the end of the incubation period, cells were removed from incubator, placed on ice, and then washed twice with ice-cold PBS to remove free ^14C-sodium acetate. Plates were sealed and stored at −20° C. until analysis. To induce lysis, 125 μL of mammalian protein extraction reagent (MPER; Fisher, 78501) was added to each well. Plates were shaken for 1 hour at room temperature and lysates transferred to individual 2 mL polypropylene tubes. Wells were then washed with 175 μL PBS, which was added to lysates. A chloroform:methanol solution (1:1 v/v, 450 μL) was added to each tube. All tubes were vortexed for 10 seconds and centrifuged at 14,000×g for 5 minutes at room temperature to separate the aqueous and organic phases. A 25 μL aliquot was removed from the bottom organic layer of each sample and added to 6 mL Optiphase Supermix scintillation fluid (PerkinElmer, 1200-439). Counts of ^14C were assessed by scintillation counting. DNL (counts of ^14C incorporated into lipids) was expressed as a percentage for compound treated cells relative to the vehicle control. IC50 values were determined using a non-linear regression (four parameter with variable slope) in GraphPad Prism.

[2] = Metabolite profile in liver microsomes, hepatocytes, recombinant human P450 and UGT enzymes, and animal plasma; assay type: in vitro ADME, mouse, rat, rabbit, dog, monkey; settings: recombinant human cytochrome P450 and UGT enzymes, plasma from animals
Description: The metabolite profile of compound of Example 14 was evaluated in liver microsomes and hepatocytes (mouse, rat, rabbit, dog, monkey, and human), recombinant human cytochrome P450 enzymes, recombinant human UGT enzymes, and plasma from animals (mouse, rat, and dog).

| SMILES | IC50 [1] | IC50 (SZ95 sebocytes) | metabolite profile [2] |
| --- | --- | --- | --- |
| COc1cnc2c(C)cc(C(=O)N3CCC4(CC3)CC(=O)c3nc(C(C)(C)C)sc3C4)cc2c1 [Example 19, 2-(tert-butyl)-1′-(3-methoxy-8-methylquinoline-6-carbonyl)-5H-spiro[benzo[d]thiazole-6,4′-piperidin]-4(7H)-one] | 9.9 nM | 21.1 nM | – |
| COc1cc(C(=O)N2CCC3(CC2)CC(=O)c2nc(C(C)(C)C)sc2C3)cc2c(C)nn(C)c12 [Example 13, 2-(tert-butyl)-1′-(7-methoxy-1,3-dimethyl-1H-indazole-5-carbonyl)-5H-spiro[benzo[d]thiazole-6,4′-piperidin]-4(7H)-one] | 5.3 nM | 13.5 nM | – |
| Cn1ccc2c(Cl)cc(C(=O)N3CCC4(CC3)CC(=O)c3nc(C(C)(C)C)sc3C4)cc21 [Example 79] | 4.1 nM | 16.7 nM | – |
| COc1cc(C(=O)N2CCC3(CC2)CC(=O)c2nc(C(C)(C)C)sc2C3)cc2[nH]ccc12 [Example 61] | 4.4 nM | 30.8 nM | – |
| CNc1cnc2c(C)cc(C(=O)N3CCC4(CC3)CC(=O)c3nc(C(C)(C)C)sc3C4)cc2c1 [Example 15, 2-(tert-butyl)-1′-(8-methyl-3-(methylamino)quinoline-6-carbonyl)-5H-spiro[benzo[d]thiazole-6,4′-piperidin]-4(7H)-one] | 3.4 nM | 12.9 nM | – |
| CNc1ccc2c(C)cc(C(=O)N3CCC4(CC3)CC(=O)c3nc(C(C)(C)C)sc3C4)cc2n1 [Example 38, 2-(tert-butyl)-1′-(5-methyl-2-(methylamino)quinoline-7-carbonyl)-5H-spiro[benzo[d]thiazole-6,4′-piperidin]-4(7H)-one] | 4.9 nM | 14.2 nM | – |
| Cc1cc(C(=O)N2CCC3(CC2)CC(=O)c2nc(C(C)(C)C)sc2C3)cc2c(Cl)c[nH]c12 [Example 42, 2-(tert-butyl)-1′-(3-chloro-7-methyl-1H-indole-5-carbonyl)-5H-spiro[benzo[d]thiazole-6,4′-piperidin]-4(7H)-one] | 3.1 nM | 15.9 nM | – |
| CNc1nc2c(C)cccc2cc1C(=O)N1CCC2(CC1)CC(=O)c1nc(C(C)(C)C)sc1C2 [Example 97] | 1.8 nM | 16.2 nM | – |
| Cc1cc(C(=O)N2CCC3(CC2)CC(=O)c2nc(C(C)(C)C)sc2C3)cc2ccccc12 [Example 16, 2-(tert-butyl)-1′-(4-methyl-2-naphthoyl)-5H-spiro[benzo[d]thiazole-6,4′-piperidin]-4(7H)-one] | 7.3 nM | 18.1 nM | – |
| COc1cc(C(=O)N2CCC3(CC2)CC(=O)c2nc(C(C)(C)C)sc2C3)cc2c(C3CC3)nccc12 [Example 99] | 3.9 nM | 10 nM | – |
| CCOc1cc(C(=O)N2CCC3(CC2)CC(=O)c2nc(C(C)(C)C)sc2C3)cc2c(C)nn(C)c12 [Example 14, 2-(tert-butyl)-1′-(7-ethoxy-1,3-dimethyl-1H-indazole-5-carbonyl)-5H-spiro[benzo[d]thiazole-6,4′-piperidin]-4(7H)-one] | 2.2 nM | 5.9 nM | oxidation and glucuronidation |
| COc1cc(C(=O)N2CCC3(CC2)CC(=O)c2nc(C(C)(C)C)sc2C3)cc(OC)c1C [Example 81] | 11.7 nM | 47.2 nM | – |
| COc1cc(C(=O)N2CCC3(CC2)CC(=O)c2nc(C(C)(C)C)sc2C3)c2[nH]ncc2c1C [Example 33, 2-(tert-butyl)-1′-(5-methoxy-4-methyl-1H-indazole-7-carbonyl)-5H-spiro[benzo[d]thiazole-6,4′-piperidin]-4(7H)-one] | 5.1 nM | 38.1 nM | – |
| Cc1cc(C(=O)N2CCC3(CC2)CC(=O)c2nc(C(C)(C)C)sc2C3)cc2cc[nH]c12 [Example 17, 2-(tert-butyl)-1′-(7-methyl-1H-indole-5-carbonyl)-5H-spiro[benzo[d]thiazole-6,4′-piperidin]-4(7H)-one] | 9.6 nM | 15.6 nM | – |
